From ChEMBL document CHEMBL1201862, “PubChem BioAssay data set” (2004) come the findings set out here.

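Cultured in 96-well plates, cells were exposed to test compound for 48 hours across five concentrations. GI50 marks 50% less growth.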 Calls of active or inactive are those of the source. Rule as the data show it: active = GI50 up to about 1.1 µM and inactive = higher.

Test systems include RPMI-8226; HT-29; UO-31; DU-145; SF-295; NCI-H23; Hs-578T; SNB-75; NCI-H460; HCT-116; NCI/ADR-RES; SR; HOP-92; MDA-MB-435; HCT-15; SF-539; UACC-62; SK-MEL-2; SN12C; NCI-H522.
Common to all, as to test: inhibition of tumour cell growth, NCI panel, 48 h

`CC12OOC(c3ccccc31)c1c2ccc2ccccc12` (stereo not given): the GI50 was 2.45 µM (inactive) in the experiment on RPMI-8226; 2.62 µM (inactive) in the experiment on HT-29; 9.55 µM (inactive) with UO-31; 18.5 µM (inactive) in the experiment on DU-145; 7.11 µM (inactive) with SF-295; 11.4 µM (inactive) in the experiment with NCI-H23. For the same compound, the GI50 in the experiment on Hs-578T is 18.9 µM (inactive); in the experiment on SNB-75, 8.47 µM (inactive); in the experiment on NCI-H460, 2.26 µM (inactive); with HCT-116, 1.73 µM (inactive); in the experiment on NCI/ADR-RES, 10 µM (inactive); with SR, 0.807 µM (active). Besides, the GI50 with HOP-92 was 2.44 µM (inactive); in the experiment on MDA-MB-435 it was 6.3 µM (inactive); with HCT-15, 2.17 µM; in the experiment on SF-539, 8.15 µM (inactive); in the experiment with UACC-62 it was 8.26 µM (inactive); with SK-MEL-2, 12.1 µM (inactive). The GI50 was 15.8 µM (inactive) in the experiment with SN12C and 0.843 µM (active) in the experiment with NCI-H522.

Consider `O=C(O)CC(CC(=O)O)C(=O)O` [TRICARBALLYLIC ACID], for which the GI50 in the experiment with RPMI-8226, in the experiment on HT-29, in the experiment on UO-31, in the experiment on DU-145, in the experiment on SF-295 and in the experiment with NCI-H23 was > 100 µM (inactive) each time. The GI50 in the experiment with Hs-578T, in the experiment with SNB-75, with NCI-H460, in the experiment with HCT-116, in the experiment on NCI/ADR-RES and in the experiment with SR was > 100 µM (inactive) in each case. The GI50 in the experiment with HOP-92 was > 100 µM (inactive); in the experiment with MDA-MB-435 it was > 100 µM (inactive); in the experiment on HCT-15, > 100 µM; in the experiment on SF-539 it was > 100 µM (inactive); in the experiment with UACC-62, > 100 µM (inactive); with SK-MEL-2, > 100 µM (inactive). Also, the GI50 in the experiment with SN12C and in the experiment on NCI-H522 was > 100 µM (inactive) each time.

With `CC(C)OC(=O)c1ccc(NCc2cc(O)ccc2O)cc1Cl`, the GI50 is 0.202 µM (active) in the experiment on RPMI-8226; 9.57 µM (inactive) in the experiment with HT-29; 0.993 µM (active) in the experiment on UO-31; 9.08 µM (inactive) with DU-145; 12.2 µM (inactive) in the experiment with SF-295; 4.39 µM (inactive) in the experiment on NCI-H23. The GI50 is 23.7 µM (inactive) with Hs-578T; 6.73 µM (inactive) with SNB-75; 6.08 µM (inactive) with NCI-H460; 8.87 µM (inactive) in the experiment on HCT-116; 2.78 µM (inactive) in the experiment on NCI/ADR-RES; 0.695 µM (active) in the experiment with SR. In addition, the GI50 in the experiment with HOP-92 is 1.51 µM (inactive); in the experiment with MDA-MB-435, 2.15 µM (inactive); in the experiment on HCT-15 it was 0.798 µM; with SF-539, 1.75 µM (inactive); in the experiment with UACC-62 it was 5.26 µM (inactive); with SK-MEL-2, 15.1 µM (inactive). The GI50 was 4 µM (inactive) in the experiment on SN12C and 0.206 µM (active) in the experiment on NCI-H522.

In the case of `C=C1[C@H](OC(=O)C(C)C)[C@@H](OC(C)=O)[C@@H](OC(C)=O)C(C)(C)[C@@H]2O[C@H]2[C@@H](C)C(=O)[C@@]2(OC(C)=O)C[C@@](C)(OC(C)=O)[C@H](OC(C)=O)[C@@H]2[C@H]1OC(C)=O`, the GI50 was > 100 µM (inactive) in the experiment on RPMI-8226; > 100 µM (inactive) in the experiment on HT-29; 61.9 µM (inactive) in the experiment with UO-31; > 100 µM (inactive) in the experiment on DU-145; > 100 µM (inactive) in the experiment on SF-295; > 100 µM (inactive) in the experiment with NCI-H23. The GI50 in the experiment on Hs-578T is > 100 µM (inactive); in the experiment with SNB-75, 0.69 µM (active); in the experiment on NCI-H460, > 100 µM (inactive); in the experiment with HCT-116, > 100 µM (inactive); in the experiment with NCI/ADR-RES, > 100 µM (inactive); with SR, > 100 µM (inactive). Also, the GI50 was > 100 µM (inactive) in the experiment on HOP-92; > 100 µM (inactive) with MDA-MB-435; > 100 µM in the experiment with HCT-15; > 100 µM (inactive) in the experiment on SF-539; > 100 µM (inactive) in the experiment on UACC-62; > 100 µM (inactive) in the experiment with SK-MEL-2. The GI50 in the experiment with SN12C and with NCI-H522 was > 100 µM (inactive) each time.
